According to paper PMC4785745, “Genome-wide analysis identifies gain and loss/change of function within the small multigenic insecticidal Albumin 1 family of Medicago truncatula” (BMC Plant Biology, 2016):
Bridge positions count the residues as written; N and C are the ends. Ends that are not written are not given here. Peptide text beside a SMILES is read from it.

How the values were obtained:
Sitophilus = assay type: in vivo; conditions: standard Sitophilus mortality assay [17]; data not shown
Sf9 cells = assay type: cell-based, Spodoptera frugiperda; conditions: for LC50: cultured Sf9 cells, 15 000 cells/well, 24 h exposure, 27 °C, CellTiter-Blue, according to Rahioui et al. [32], '-' = no toxicity in the range assayed
Experimental: Sf9 cells lines were grown at 27 °C in Lonza’s culture medium, supplemented with 5 % fetal bovine serum (FBS) and 0.1 % gentamicin. Sf9 cells were seeded, in 96-well plates, 24 h prior to the experiments (15 000 cells/well) and were exposed to increasing concentrations of synthetic peptide. After this 24 h period, cell viability was determined using the CellTiter-Blue Viability Assay (Promega), according to the manufacturer’s instructions. After addition of the dye, the cells were incubated at 27 °C for 4 h. The absorbance, at 570 and 600 nm, was then measured using a microplate reader (MR 7000, Dynatech Laboratories Inc., USA).

PA1b binding site = test: Ligand binding to the PA1b-binding site using 125I-PA1b; conditions: for binding to the PA1b-binding site (in words): 125I-PA1b ligand binding; for Ki: affinity to the PA1b binding site, ligand binding using 125I-PA1b, according to [12], '-' = no binding in the range assayed
Experimental: The affinity of synthetic peptides for the PA1b-binding site was determined by ligand binding using ^125I-toxin [12].

[1] = test system: Sf9 cell ramp membrane current; test: Whole-cell patch-clamp: blockage of Sf9 cell ramp membrane current; assay type: cell-based, Spodoptera frugiperda; conditions: Sf9 cells; for EC50: whole-cell patch clamp, voltage ramps 1.5 s from −100 to 90 mV, measured at +50 mV, Hill fit with 100 % blockage as fixed maximum, mean ± S.E., n = 9 (AG41), n = 8 (PA1b), SEM, read-out: EC50, inhibition of ramp membrane current
Experimental: We further investigated the AG41’s biological activity by performing an electrophysiological experiment on cultured Sf9 cells to check whether its cell-membrane ion transport alteration differed from that of PA1b, the model pea peptide. […] At 35 nM, AG41 decreased by approximately 35 % the ramp current amplitude measured at +50 mV (from 68 pA to 44 pA), while a similar concentration of 37.5 nM PA1b had no effect (trace from AG41 even differed from control at 3.5 nM).
Current recordings were made at room temperature, under voltage clamp using the whole-cell configuration of the patch-clamp technique. Command voltage and data acquisition were performed with pClamp software (Axon Instruments, Foster city, CA, USA). The holding potential was −80 mV. Membrane currents were evoked, every 10 s, by voltage ramps of 1.5 s in duration applied from −100 to 90 mV, filtered at 300 Hz and sampled at 1 kHz with an analogue-to-digital converter (Labmaster TM 40, Scientific Solutions Inc., Solon OH, USA). The external solution contained (in mM): 135 NaCl, 4 KCl, 2 MgCl2, 10 CaCl2 and 10 Mes, adjusted to pH 6.4 with NaOH. The internal solution contained (in mM): 140 K-aspartate, 1 MgCl2, 3 K2-ATP, 5 EGTA and 5 Hepes, adjusted to pH 7.2 with KOH. Salts were purchased from Sigma-Aldrich and peptides were prepared as 60 % (v/v) ethanol stock solution as previously described.
Biological results are expressed as the mean ± S.E.M., n indicating the number of Sf9 cells studied (electrophysiology). Statistical comparisons were made using a Mann–Whitney U or Wilcoxon tests at the 95 % confidence level.

Compound | toxicity in Sitophilus mortality assay (in words) (Sitophilus) | LC50 (Sf9 cells) | binding to the PA1b-binding site (in words) (PA1b binding site) | Ki (PA1b binding site) | effect on ramp membrane current (in words) ([1]; 37.5 nM peptide) | EC50 [1] | toxicity relative to the original pea albumin 1b (Sf9 cells; compared with PA1b, Table 1) | decrease of ramp current amplitude measured at +50 mV ([1]; 35 nM peptide) | ramp current amplitude measured at +50 mV ([1]; 35 nM peptide (control 68 pA))
CC[C@H](C)[C@@H]1NC(=O)CNC(=O)[C@H](CO)NC(=O)[C@@H](NC(=O)[C@H](CC(=O)O)NC(=O)[C@H](C)N)CSSC[C@@H]2NC(=O)[C@H](CC(=O)O)NC(=O)[C@H](CO)NC(=O)[C@H](CO)NC(=O)[C@H](CCCNC(=N)N)NC(=O)[C@@H]3CSSC[C@@H](C(=O)N[C@H](C(=O)N[C@@H](CC(N)=O)C(=O)N4CCC[C@H]4C(=O)N[C@H](C(=O)N[C@@H](CO)C(=O)O)[C@@H](C)CC)[C@@H](C)CC)NC(=O)[C@H](Cc4ccccc4)NC(=O)CNC(=O)CNC(=O)[C@H]([C@@H](C)CC)NC(=O)[C@H](CC(C)C)NC(=O)[C@H](C)NC(=O)[C@H]([C@@H](C)CC)NC(=O)[C@@H]4CCCN4C(=O)[C@H]([C@@H](C)CC)NC(=O)[C@H](CSSC[C@H](NC1=O)C(=O)N[C@@H](CO)C(=O)N1CCC[C@H]1C(=O)N[C@@H](Cc1ccccc1)C(=O)N[C@@H](CCC(=O)O)C(=O)N[C@@H](CCSC)C(=O)N1CCC[C@H]1C(=O)N1CCC[C@H]1C(=O)N3)NC(=O)[C@H](CCCNC(=N)N)NC2=O [AS37] (H-ADCSGICSPFEMPPCRSSDCRCIPIALIGGFCINPIS-OH; disulfide 3-20, 7-22, 15-32 (inferred); N-terminus and C-terminus assumed) | toxic | 107 ± 3.2 nM | revealed binding properties | 15 ± 2 nM |  |  |  |  | 
CC[C@H](C)[C@@H]1NC(=O)[C@H](Cc2ccccc2)NC(=O)[C@@H]2CSSC[C@@H]3NC(=O)[C@H](C)NC(=O)[C@H](CCC(=O)O)NC(=O)CNC(=O)[C@@H](NC(=O)[C@H](CCCCN)NC(=O)[C@H](C)N)CSSC[C@H](NC(=O)CNC(=O)[C@H](CC(=O)O)NC(=O)CNC(=O)[C@H](C)NC(=O)[C@H](CC(N)=O)NC(=O)[C@H](CSSC[C@@H](C(=O)N[C@@H](C)C(=O)N[C@@H](CCC(N)=O)C(=O)N[C@@H](CC(C)C)C(=O)N[C@@H](CO)C(=O)N[C@H](C(=O)O)[C@@H](C)O)NC(=O)[C@H](Cc4ccccc4)NC(=O)CNC(=O)[C@@H]4CCCN4C(=O)[C@H](CC(C)C)NC(=O)[C@H]([C@@H](C)O)NC(=O)[C@H](CC(C)C)NC(=O)[C@H](Cc4ccc(O)cc4)NC(=O)[C@H](C)NC(=O)[C@H](CC(=O)O)NC(=O)[C@H]([C@@H](C)O)NC1=O)NC(=O)[C@H](Cc1ccccc1)NC(=O)[C@H](CC(N)=O)NC(=O)[C@H](Cc1ccccc1)NC(=O)[C@H](CCC(N)=O)NC(=O)[C@H]([C@@H](C)O)NC(=O)[C@H](CC(=O)O)NC3=O)C(=O)N[C@@H](CCCNC(=N)N)C(=O)N2 [AS40] (H-AKCGEACDTQFNFCNAGDGCRCFITDAYLTLPGFCAQLST-OH; disulfide 3-20, 7-22, 14-35 (inferred); N-terminus and C-terminus assumed) |  | 47 ± 2.2 nM | revealed binding properties | 10.3 ± 2 nM |  |  |  |  | 
CC[C@H](C)[C@@H]1NC(=O)[C@H](C(C)C)NC(=O)[C@H](CC(C)C)NC(=O)CNC(=O)[C@H](C(C)C)NC(=O)[C@@H]2CCCN2C(=O)[C@H]([C@@H](C)CC)NC(=O)[C@@H]2CSSC[C@@H]3NC(=O)[C@H](C(C)C)NC(=O)CNC(=O)[C@H](CC(N)=O)NC(=O)[C@@H](NC(=O)[C@H](CO)NC(=O)[C@H](C)N)CSSC[C@H](NC(=O)[C@H](C)NC(=O)[C@H](CO)NC(=O)[C@H]([C@@H](C)O)NC(=O)CNC(=O)[C@H](CSSC[C@@H](C(=O)N[C@@H](CCCNC(=N)N)C(=O)N[C@@H](CC(N)=O)C(=O)N4CCC[C@H]4C(=O)N[C@@H](CO)C(=O)NCC(=O)O)NC(=O)[C@H](Cc4ccc(O)cc4)NC(=O)CNC1=O)NC(=O)[C@@H]1CCCN1C(=O)[C@@H]1CCCN1C(=O)[C@H](CCSC)NC(=O)[C@H](CCC(=O)O)NC(=O)[C@H](Cc1ccccc1)NC(=O)[C@@H]1CCCN1C(=O)[C@H](CO)NC3=O)C(=O)N[C@@H](CCCNC(=N)N)C(=O)N2 [PA1b, reference compound] (H-ASCNGVCSPFEMPPCGTSACRCIPVGLVIGYCRNPSG-OH; disulfide 3-20, 7-22, 15-32; N-terminus and C-terminus assumed) |  | 79.8 ± 3.6 nM |  | 17 ± 1.1 nM | no effect | 415 ± 75.6 nM |  |  | 
ASCPNVGAVCSPFETKPCGNVKDCRCLPWGLFFGTCINPTG (disulfide 3-24, 10-26, 18-36 (inferred)) [AG41] | highly toxic | 5.44 ± 1.7 nM | revealed binding properties | 1.3 ± 0.6 nM |  | 14.6 ± 0.4 nM | almost ten times superior | approximately 35% | 44 pA
DEC-W-G-PCSVLQTPP-CPLSK CYCIPLFLVVGY---CSHASS (bicyclic or more) [DS37, synthetic folded Medicago truncatula A1b peptide, cluster 1, non-canonical CYC motif] | not toxic | - ((−) scores a negative result (no toxicity nor binding in the toxin range assayed)) | did not present binding |  |  |  |  |  | 
EFCSSVGSFCSPFNTNPCGYLGNCRCVPYYLYGGTCENPFG (disulfide 3-24, 10-26, 18-36 (inferred)) [EG41] |  | 75 ± 3.1 nM | revealed binding properties | 72.8 ± 2.7 nM |  |  |  |  | 
GQCARVGMRCSRALPNPCGDIVTCRCVHLHLVGSTCIDYTGDGL (disulfide 3-24, 10-26, 18-36) [GL44] |  | - ((−) scores a negative result (no toxicity nor binding in the toxin range assayed)) | did not present binding | > 694 nM |  |  |  |  | 
